Patent US20220040158A1, “AZD0328 DOSAGE REGIME FOR TREATING COGNITIVE IMPAIRMENT” (ASTRAZENECA AB, priority 2018, published 2022)
Where two headings read alike, the source gives them in different places.

Legend:
α7 nAChR [1] = biological target: T1, α7 nAChR (Homo sapiens, UniProt P36544); conditions: from the literature (Feuerbach et al.); read-out: EC50 as α7 nAChR agonist; cited from earlier work
[2] = single compartment oral dosing PK model for AQW051; parameters: species or system human; conditions: model parameter estimate
From the text: (§1) In more detail, a single compartment oral dosing model with first order absorption as shown in equation (1) for a single dose at time t=0. This population-level model describes the concentration time dynamics of the study cohort given dose D of the drug. Here t is time, C(t) is drug concentration over time, Cmax is maximum achieved concentration at a particular dose, F is bioavailability, D is dose, Vd is volume of distribution, kα is the absorption time constant, and ke is the elimination time constant.
(§2) From the clinical study documentation, for each dose cohort t1/2, tmax, and Cmax could be established. For example, assuming dose-proportionality, half-life t1/2 was estimated for both drugs as the mean over of t1/2 over the different single-dose cohorts, as described in the study publications. We could then determine a working value for the elimination time constant ke in equation (2): […]
(§3) From equation (1), the time of maximum concentration tmax is then available from (3):
(§4) With dose-proportionality, tmax is independent of dose and is again obtained from the mean over the different single-dose cohorts. The absorption time constant kα is established by identifying the kα which results in a zero error e=0:
(§5) This is accomplished by graphing e(kα) over a dense grid in kα, identifying a region around the zero-crossing in which e(.) is monotonic in k0, and then using the interpolation function to estimate the kα with e(kα)=0. With the assumption of dose proportionality, we estimated the mean of Cmax/D over the single-dose cohorts and defined the constant K
(§6) Then from equation (1) and the definition of Cmax,
(§7) For multiple doses at times τi, we then assume linearity and hav
(§8) All equations were implemented directly in R version 3.2.1 (2015 Jun. 18, see https://cran.r-project.org/).
(§9) Dose and dosing regime selection for AZD0328 is targeted to achieve similar levels of α7 nAChR agonism to those reported to deliver clinical improvement in MCI with AQW051 (Trenkwalder et al., ibid).

[3] = geometric mean, cited from earlier work
[4] = AQW051 single-dose cohort pharmacokinetics (Feuerbach et al, phase I); type: in vivo, human
From the text: (§10) We thus set out to use summary cohort-level pharmacokinetic (PK) statistics for AQW051 (Feuerbach et al, ibid) and our own unpublished results for AZD0328 (A Phase I, Single-Centre, Randomized, Double-Blind, Placebo-Controlled, Parallel Group Study to Assess the Safety, Tolerability and Pharmacokinetics of AZD0328 in Healthy Volunteers after Oral Single Ascending Doses, Study Code D0190C00005, Ed. 1, 8 Apr. 2008) to establish a safe an efficacious dose range and regime for AZD0328 in Parkinson's disease patients.
as §2, §9

[5] = test system: Parkinson's disease patients; conditions: cited from earlier work
α7 nAChR [6] = biological target: T1, α7 nAChR; experiment: α7 nAChR binding (inhibition of radioligand binding)
From the text: (§11) AZD0328 is ca 20-fold selective to the α1β1γδ nAChR, and 1000-fold selective to other nicotinic receptors and a panel of other targets (as determined by inhibition of radioligand binding).

[7] = test system: other nicotinic receptors and a panel of other targets; experiment: selectivity by inhibition of radioligand binding, other nicotinic receptors and panel; conditions: relative to α7 nAChR
From the text: as §11

α7 nAChR [8] = biological target: T1, α7 nAChR; experiment: Ki for efficacy used as threshold in PK figures; conditions: threshold indicated in FIGS. 3-5
Rhesus monkeys = experiment: spatial working memory in Rhesus monkeys; type: in vivo, Rhesus monkey
Method: (§12) In Rhesus monkeys, spatial working memory was enhanced by doses of AZD0328 above 0.001 mg/kg (plasma compound levels of ca 0.2 times the whole cell current IC50).

schizophrenia patients = experiment: clinical evaluation of cognition in schizophrenia patients; type: in vivo, human; conditions: doses up to 0.675 mg
From the text: In the case of schizophrenia, it has been widely postulated that direct-acting agonists of various cholinergic receptors including α7 nAChRs, could normalize GABAergic, glutamergic, or dopaminergic function in the dorsolateral prefrontal cortex (dIPFC), dysfunction of which has been consistently associated with cognitive deficits in this condition. […] To date, despite numerous trials, no α7 nAChR agonist has been approved for use in the treatment of schizophrenia.
as §12

[9] = Phase I oral single ascending dose study of AZD0328 in healthy volunteers (safety, tolerability, pharmacokinetics); type: in vivo, human
From the text: as §10, §2
Capsules used in the study on which the modelling described above was performed were made by blending AZD0328 tartrate (monotartrate/monohydrate form) with mannitol, povidone and sodium starch glycolate (see Table 5). The blend was the subjected to wet granulation with water as the granulation fluid, then dried before blending with sodium stearyl fumarate. The resultant composition was filled into size 4 hard gelatin capsules (containing gelatin (Ph Eur), titanium dioxide (Ph Eur), and iron oxide black, red and yellow (E172). In embodiments, the compositions for use are capsules according to Table 5.

α7 nAChR [10] = biological target: T1, α7 nAChR; experiment: activation of whole cell current at α7 nAChR; type: cell-based
rats = conditions: oral administration (WO2008/115139); cited from earlier work
[11] = single compartment oral dosing PK model for AZD0328; parameters: species or system human; conditions: model parameter estimate
From the text: as §1, §2, §3, §4, §5, §6, §7, §8

α1β1γδ nAChR = α1β1γδ nAChR (Homo sapiens, UniProt P02708+P07510+Q07001); experiment: selectivity by inhibition of radioligand binding, α1β1γδ nAChR; conditions: relative to α7 nAChR
α1β1γδ nAChR, sequence (P02708 21-457): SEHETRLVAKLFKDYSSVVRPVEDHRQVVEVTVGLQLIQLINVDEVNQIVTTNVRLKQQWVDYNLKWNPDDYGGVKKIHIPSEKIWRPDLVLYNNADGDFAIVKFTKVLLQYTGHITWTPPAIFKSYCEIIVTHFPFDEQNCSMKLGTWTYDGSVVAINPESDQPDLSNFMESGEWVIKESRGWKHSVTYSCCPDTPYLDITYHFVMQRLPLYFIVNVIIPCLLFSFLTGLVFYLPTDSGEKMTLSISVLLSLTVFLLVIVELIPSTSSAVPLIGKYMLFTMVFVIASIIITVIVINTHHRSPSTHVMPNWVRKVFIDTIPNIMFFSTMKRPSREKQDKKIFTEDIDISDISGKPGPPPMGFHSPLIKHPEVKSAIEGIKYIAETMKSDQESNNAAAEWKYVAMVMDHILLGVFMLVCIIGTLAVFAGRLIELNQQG
α1β1γδ nAChR, sequence (P11230 24-501 partner): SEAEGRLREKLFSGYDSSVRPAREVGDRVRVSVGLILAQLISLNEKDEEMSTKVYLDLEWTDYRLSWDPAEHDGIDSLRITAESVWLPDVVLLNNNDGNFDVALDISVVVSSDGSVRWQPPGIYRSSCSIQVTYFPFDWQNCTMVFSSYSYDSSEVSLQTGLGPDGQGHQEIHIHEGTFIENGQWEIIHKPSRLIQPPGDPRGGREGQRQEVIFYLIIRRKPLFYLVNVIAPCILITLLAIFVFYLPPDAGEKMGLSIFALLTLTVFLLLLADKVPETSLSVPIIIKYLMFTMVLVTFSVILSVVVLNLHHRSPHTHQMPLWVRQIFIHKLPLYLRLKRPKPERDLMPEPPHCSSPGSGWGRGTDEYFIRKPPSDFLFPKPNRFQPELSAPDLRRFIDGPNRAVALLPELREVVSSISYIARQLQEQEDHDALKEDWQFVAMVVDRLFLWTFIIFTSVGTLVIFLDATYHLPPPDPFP
α1β1γδ nAChR, sequence (P07510 23-517): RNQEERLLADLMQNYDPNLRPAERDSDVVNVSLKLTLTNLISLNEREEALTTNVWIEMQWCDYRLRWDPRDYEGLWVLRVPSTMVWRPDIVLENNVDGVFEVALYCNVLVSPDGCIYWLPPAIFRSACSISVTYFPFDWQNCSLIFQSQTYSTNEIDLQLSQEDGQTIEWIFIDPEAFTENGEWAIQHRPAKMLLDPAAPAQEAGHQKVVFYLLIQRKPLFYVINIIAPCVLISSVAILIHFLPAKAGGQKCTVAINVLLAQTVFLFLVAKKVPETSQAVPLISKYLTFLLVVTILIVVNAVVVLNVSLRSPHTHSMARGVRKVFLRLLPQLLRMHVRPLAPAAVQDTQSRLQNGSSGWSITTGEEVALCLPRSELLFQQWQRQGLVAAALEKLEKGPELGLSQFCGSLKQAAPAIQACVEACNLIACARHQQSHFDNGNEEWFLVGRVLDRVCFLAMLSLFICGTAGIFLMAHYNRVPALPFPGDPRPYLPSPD
α1β1γδ nAChR, sequence (Q07001 22-517): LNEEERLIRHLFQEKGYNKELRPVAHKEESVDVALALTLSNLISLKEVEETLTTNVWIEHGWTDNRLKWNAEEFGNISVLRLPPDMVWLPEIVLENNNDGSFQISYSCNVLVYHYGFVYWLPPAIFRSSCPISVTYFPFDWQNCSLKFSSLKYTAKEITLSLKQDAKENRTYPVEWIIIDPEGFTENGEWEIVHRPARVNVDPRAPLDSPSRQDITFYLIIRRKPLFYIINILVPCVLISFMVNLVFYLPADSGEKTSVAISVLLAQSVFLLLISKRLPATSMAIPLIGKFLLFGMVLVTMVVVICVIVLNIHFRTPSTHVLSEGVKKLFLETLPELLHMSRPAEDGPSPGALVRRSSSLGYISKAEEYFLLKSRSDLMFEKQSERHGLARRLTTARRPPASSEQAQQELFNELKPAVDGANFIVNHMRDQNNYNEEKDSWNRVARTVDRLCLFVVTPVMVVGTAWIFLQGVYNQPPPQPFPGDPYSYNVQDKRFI
From the text: as §11

[12] = healthy volunteers, oral single dose 0.025 mg, cohort geometric mean
[13] = healthy volunteers, oral single dose 0.075 mg, cohort geometric mean
[14] = healthy volunteers, oral single dose 0.23 mg, cohort geometric mean
[15] = healthy volunteers, oral single dose 0.68 mg, cohort geometric mean
[16] = healthy volunteers, oral single dose 1.35 mg, cohort geometric mean
[17] = healthy volunteers, oral single dose 2 mg, cohort geometric mean

T1 sequence (P36544 23-502): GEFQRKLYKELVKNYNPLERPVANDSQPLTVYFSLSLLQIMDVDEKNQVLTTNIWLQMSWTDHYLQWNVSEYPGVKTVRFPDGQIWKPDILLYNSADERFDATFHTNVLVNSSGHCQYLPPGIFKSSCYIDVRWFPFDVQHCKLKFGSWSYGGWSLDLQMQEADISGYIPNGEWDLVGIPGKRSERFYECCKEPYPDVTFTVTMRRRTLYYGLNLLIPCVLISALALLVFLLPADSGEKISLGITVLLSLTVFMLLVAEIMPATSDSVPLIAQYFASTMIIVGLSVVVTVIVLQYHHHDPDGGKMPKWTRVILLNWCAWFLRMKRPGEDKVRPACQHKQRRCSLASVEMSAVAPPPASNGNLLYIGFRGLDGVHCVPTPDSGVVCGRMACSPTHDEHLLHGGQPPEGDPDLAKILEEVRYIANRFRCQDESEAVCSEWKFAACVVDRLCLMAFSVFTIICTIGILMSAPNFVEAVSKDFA

SMILES: Cc1ccc(-c2ccc(OC3CN4CCC3CC4)cn2)cc1 (stereo not drawn) [AQW051]
- EC50 (α7 nAChR [1]): 40 nM
- K (equation 7 and 8) [2]: 0.88 ng/mL/mg
- ka (absorption time constant) [2]: 0.40 h⁻¹
- ke (elimination time constant) [2]: 0.033 h⁻¹
- Cmax ([3]; Cohort 1, single dose 0.5 mg): 0.266 ng/mL
- tmax ([3]; Cohort 1, single dose 0.5 mg): 8 h
- Cmax ([3]; Cohort 2, single dose 2.5 mg): 1.20 ng/mL
- tmax ([3]; Cohort 2, single dose 2.5 mg): 8 h
- Cmax ([3]; Cohort 3, single dose 7.5 mg): 4.34 ng/mL
- t1/2 ([3]; Cohort 3, single dose 7.5 mg): 22.0 h
- tmax ([3]; Cohort 3, single dose 7.5 mg): 7.98 h
- Cmax ([3]; Cohort 4, single dose 25 mg): 20.6 ng/mL
- t1/2 ([3]; Cohort 4, single dose 25 mg): 22.7 h
- tmax ([3]; Cohort 4, single dose 25 mg): 8 h
- Cmax ([3]; Cohort 5, single dose 75 mg): 47.0 ng/mL
- t1/2 ([3]; Cohort 5, single dose 75 mg): 18.8 h
- tmax ([3]; Cohort 5, single dose 75 mg): 4.04 h
- Cmax ([3]; Cohort 6, single dose 200 mg): 162 ng/mL
- t1/2 ([3]; Cohort 6, single dose 200 mg): 20.0 h
- tmax ([3]; Cohort 6, single dose 200 mg): 4.77 h
- Cmax/Dose ([4]; Cohort 1, single dose 0.5 mg): 0.53 ng/mL/mg
- Cmax/Dose ([4]; Cohort 2, single dose 2.5 mg): 0.48 ng/mL/mg
- Cmax/Dose ([4]; Cohort 3, single dose 7.5 mg): 0.58 ng/mL/mg
- Cmax/Dose ([4]; Cohort 4, single dose 25 mg): 0.82 ng/mL/mg
- Cmax/Dose ([4]; Cohort 5, single dose 75 mg): 0.63 ng/mL/mg
- Cmax/Dose ([4]; Cohort 6, single dose 200 mg): 0.81 ng/mL/mg
- Cmax/Dose ([4]; mean over cohorts): 0.64 ng/mL/mg
- t1/2 ([4]; mean over cohorts): 20.9 h
- tmax ([4]; mean over cohorts): 6.80 h
- effect size, improvement in MCI ([5]; PD patients, 10 mg once daily, P=0.073): 0.4
- increase in cognitive function ([5]; PD patients, 10 mg): not significantly different from the control group
- effect size, improvement in MCI ([5]; PD patients, 50 mg once daily, P=0.024): 0.5
- improvement in cognitive function ([5]; PD patients, 50 mg): significantly different from the placebo cohort
- cognitive function ([5]; Trenkwalder et al 2016 study): improvements in cognitive function can be realised

SMILES: c1cnc2c(c1)C[C@@]1(CN3CCC1CC3)O2 [AZD0328, (3R)-spiro[1-azabicyclo[2.2.2]octane-3,2′(3′H)-furo[2,3-b]pyridine]
- IC50 (α7 nAChR [6]): 3 nM
- selectivity to other nicotinic receptors and a panel of other targets [7]: 1000 fold
- Ki (α7 nAChR [8]): 5 nM
- doses enhancing spatial working memory (Rhesus monkeys): above 0.001 mg/kg
- improvement in cognition (schizophrenia patients): did not show a statistically significant improvement in cognition
- adverse effects ([9]; clinical studies, single dose 0.68 mg): adverse effects, especially, nausea become apparent
- prevalence of adverse events ([9]; clinical studies, single doses from 0.25 mg to 0.50 mg): markedly reduced
- Cmax [9, 12]: 0.63 nM
- t1/2 [9, 12]: 6.25 h
- Cmax [9, 13]: 2.08 nM
- t1/2 [9, 13]: 5.94 h
- Cmax [9, 14]: 6.37 nM
- t1/2 [9, 14]: 6.69 h
- Cmax [9, 15]: 15 nM
- t1/2 [9, 15]: 5.98 h
- Cmax [9, 16]: 31 nM
- t1/2 [9, 16]: 6.87 h
- Cmax [9, 17]: 43.9 nM
- tmax [9, 17]: 2.45 h
- half-life ([9]; human, plasma, oral, mean over cohorts): 1.81 h
- tmax ([9]; human, plasma, oral, mean over cohorts, read-out: tmax): 6.21 h
- tmax ([9]; human, plasma, healthy volunteers, oral single dose 0.025 mg, cohort geometric mean, read-out: tmax): 1.44 h
- tmax ([9]; human, plasma, healthy volunteers, oral single dose 0.075 mg, cohort geometric mean, read-out: tmax): 1.59 h
- tmax ([9]; human, plasma, healthy volunteers, oral single dose 0.23 mg, cohort geometric mean, read-out: tmax): 1.38 h
- tmax ([9]; human, plasma, healthy volunteers, oral single dose 0.68 mg, cohort geometric mean, read-out: tmax): 2.08 h
- tmax ([9]; human, plasma, healthy volunteers, oral single dose 1.35 mg, cohort geometric mean, read-out: tmax): 2.95 h
- Cmax/Dose ([9]; mean over cohorts): 24.6 nM/mg
- Cmax/Dose ([9]; oral single dose 0.025 mg): 25.2 nM/mg
- Cmax/Dose ([9]; oral single dose 0.075 mg): 27.7 nM/mg
- Cmax/Dose ([9]; oral single dose 0.23 mg): 27.7 nM/mg
- Cmax/Dose ([9]; oral single dose 0.68 mg): 22.1 nM/mg
- Cmax/Dose ([9]; oral single dose 1.35 mg): 22.9 nM/mg
- Cmax/Dose ([9]; oral single dose 2 mg): 21.94 nM/mg
- EC50 (α7 nAChR [10]; read-out: activation of whole cell current IC50): 2900 nM
- Emax (α7 nAChR [10]; read-out: intrinsic activity compared with acetylcholine): 101%
- long-term potentiation (rats): significantly improve
- operant conditioning (rats): significantly improve
- K (equation 7 and 8) [11]: 32.4 nm/mg
- ka (absorption time constant) [11]: 1.57 h⁻¹
- ke (elimination time constant) [11]: 0.11 h⁻¹
- selectivity to the α1β1γδ nAChR (α1β1γδ nAChR): ~20 fold
